US8017346B2, “Method of quantifying the G protein-coupled receptor (GPCR)/G protein coupling using a cell membrane array” (Universidad Del Pais Vasco, priority 2005, dated 2011)
Peptide text beside a SMILES is read from it.

Tested on: galanin receptors
Experiment: [35S]GTPγS autoradiography on tissue membrane arrays with galanin receptor ligands
Assay type: biochemical, rat
Details: for [35S]GTPγS fixing in the presence of ligand versus baseline: pituitary gland membranes, tissue array (FIG. 4); for effect on the action of galnon on [35S]GTPγS fixing: combination with galnon, tissue arrays (FIG. 5)
From the text: 5 male Sprague Dawley rats (250-275 g) were anesthetized and sacrificed according to the guide approved by the Ethics Committee of the Faculty of Medicine of the University of the Basque Country, following the internationally accepted guidelines (86/609/EEC). The organs and tissue which were to be used in the experiment (pancreas, stomach, small intestine, spleen, heart, lung, liver, testicle, vas deferens, kidney, suprarenal glands, bone marrow and brain: frontal cortex, striatum, brain stem, pituitary gland, olfactory nuclei, hippocampus, hypothalamus, thalamus, colliculus and cerebellum) were then removed. These samples were stored at −70° C. until the experiment was carried out.
The tissue samples (1 g) were homogenized using a teflon-glass homogenizer (10 strokes at 1,500 rpm) in 30 volumes of homogenization buffer [1 mM ethylene glycol-bis(β-aminoethyl)-N,N,N′,N′-tetraacetic acid (EGTA), 3 mM MgCl2, 1 mM dithiothreitol (DTT) and 50 mM Tris-HCl, pH 7.4] supplemented with […] sucrose. The crude homogenate was centrifuged at 3,000×g and at 4° C. for 5 minutes and the resulting supernatant was again centrifuged at 40,000×g for 10 minutes (4° C.). The pellet was washed in 20 volumes of homogenization buffer and re-centrifuged in the same conditions. Aliquots were carried out and stored at −70° C. The protein content was determined according to the Bradford method [Bradford M M., Anal Biochem 1976; 72:248-54] using bovine serum albumin (BSA) as a standard.
1 mg/ml aliquots of each tissue were taken and with this suspension, 1 μl microspots were made on glass supports (slides) which were previously treated with concentrated orthophosphoric acid (85%); to that end, the slides were first washed with acetone and then with anhydrous isopropanol, they were dried and finally submersed in concentrated orthophosphoric acid (85%) for 24 hours, they were washed with distilled water (Millipore) and air-dried. The arrays were frozen at −70° C. until the experiment was carried out.
The slides with tissue sections were allowed to dry for 15 minutes at room temperature. The tissue section were then pre-incubated in assay buffer at pH 7.4 [50 mM Tris-HCl, 3 mM MgCl2, 0.2 mM EGTA, 100 mM NaCl, 3 mU/ml adenosine deaminase] for 20 minutes at room temperature to eliminate, as much as possible, the presence of endogenous neurotransmitters; afterwards, the sections were pre-incubated again in the assay buffer supplemented with guanosine diphosphate (GDP) (2 mM) and DTT (1 mM).
The slides were then incubated for 2 hours at 30° C. in the previous assay buffer, to which the following substances were added according to the different conditions of the experiment:
Baseline: 0.04 nM [^35S] GTPγS
Activated: 0.04 nM [^35S] GTPγS+agonist
Inhibited: 0.04 nM [^35S]GTPγS+agonist+antagonist
Non-specific: 0.04 nM [^35S] GTPγS+10 μM GTPγS
Once this time had elapsed, 2 washings of 15 minutes in the buffer 50 mM Tris-HCl, pH 7.4 at 4° C. were carried out. After the second washing, the sections were submersed in distilled water at 4° C. to eliminate the salts and the slide was dried by means of applying a cold air current.
The slides with the corresponding sections were then exposed to a radiosensitive film (Kodak Biomax MR) which was developed in a manner similar to a photographic film. The labeling was quantified according to the different gray densities at nCi/g of tissue equivalent. To that end, each film was exposed together with the previously calibrated commercial standards (Amersham). The quantification was carried out with microscopic anatomical resolution in a computerized image analysis system, using NIH-image software, of G protein activation.
The following ligands were used to study [^35S] GTPγS fixing in the absence (baseline) and in the presence of galanin receptor ligands: galanin, galnon, gal (2-11), M15 [galanin-(1-13)-substance P-5-11 amide], M35 [galanin-(1-13)-bradykinin-(2,9) amide] and M40 [galanin-(1-13)-[…]amide].

Molecule	[35S]GTPγS fixing in the presence of ligand versus baseline	effect on the action of galnon on [35S]GTPγS fixing
Cc1cc(=O)oc2cc(NC(=O)[C@H](CCCCN)NC(=O)[C@H](CC3CCCCC3)NC(=O)OCC3c4ccccc4-c4ccccc43)ccc12 [galnon] (HELM PEPTIDE1{[O=C(OCC1c2ccccc2-c2ccccc21)[*:2]].[Cha].K.[Cc1cc(=O)oc2cc(N[*:1])ccc12]}$$$$V2.0)	increase	–
gal (2-11): galanin receptor ligand	increase	–
galanin-(1-13)-Pro-Pro-Ala-Leu-Ala-Leu-Ala-Leu-Ala amide [M40]	increase	antagonized
galanin-(1-13)-bradykinin-(2,9) amide [M35]	increase	antagonized
galanin-(1-13)-substance P-5-11 amide [M15]	increase	–
